Reference: patent publication US7642229B2, “Pharmaceutical composition and a product which includes a substituted acryloyl distamycin derivative, an antimicrotubule agent and/or an antimetabolite” (Nerviano Medical Sciences S.r.l., priority 2000, dated 2010)

Test system: disseminated L1210 murine leukemia
Conditions: for Tox (number of toxic deaths/number of mice) / ILS % (increase in life span: [(median survival time of treated mice/median survival time of controls) × 100] − 100): L1210 cells 10^5/mouse iv on day 0, PNU 166196 iv + 1.6, 0.78 mg/kg/day; for Tox (number of toxic deaths/number of mice): gemcitabine iv + 1, 15 mg/kg/day; for ILS % (increase in life span: [(median survival time of treated mice/median survival time of controls) × 100] − 100): gemcitabine iv + 1, 15 mg/kg/day (2 h after PNU 166196 administration); for ILS % values: text: gemcitabine 15 mg/kg day +1 after tumor injection, PNU 166196 0.7 mg/kg days +1,6, combination at the same doses and schedule

Structure (SMILES)	Tox (number of toxic deaths/number of mice)	ILS % (increase in life span: [(median survival time of treated mice/median survival time of controls) × 100] − 100)	ILS % values	toxicity (text: gemcitabine alone 15 mg/kg day +1, PNU 166196 alone 0.7 mg/kg days +1,6)
Nc1ccn([C@@H]2O[C@H](CO)[C@@H](O)C2(F)F)c(=O)n1 [Gemcitabine, gemcitabine, reference compound]	0/10	50%	50%	
C=C(Br)C(=O)Nc1cc(C(=O)Nc2cc(C(=O)Nc3cc(C(=O)Nc4cc(C(=O)NCCNC(=N)N)n(C)c4)n(C)c3)n(C)c2)n(C)c1.Cl [PNU 166196, N-(5-{[(5-{[(5-{[(2-{[amino(imino)methyl]amino}ethyl)amino]carbonyl}-1-methyl-1H-pyrrol-3-yl)amino]carbonyl}-1-methyl-1H-pyrrol-3-yl)amino]carbonyl}-1-methyl-1H-pyrrol-3-yl)-4-[(2-bromoacryloyl)amino]-1-methyl-1H-pyrrole-2-carboxamide hydrochloride]	0/10	58%	58%	without toxicity
